The numbers were not newly measured in patent publication US20260276655A1, “BIOMARKERS OF AMYOTROPHIC LATERAL SCLEROSIS AND USES THEREOF” (The Methodist Hospital, priority 2023, published 2026), which cites them from elsewhere.

For data set [1] the following is noted: normal physiological conditions.
The test system of another data set is ALS patients. The following applies: administered to ALS patients.

With `CCCCCC(O)/C=C/C=O` (centres unmarked) [4-HNE, 4-hydroxynonenal], the half-life result in data set [1] was “less than 2 minutes”.
For `CO/N=C(\C(=O)N[C@@H]1C(=O)N2C(C(=O)O)=C(CSc3nc(=O)c(=O)[nH]n3C)CS[C@H]12)c1csc(N)n1` [ceftriaxone, (6R,7R)-7-[[(2Z)-2-(2-amino-1,3-thiazol-4-yl)-2-methoxyiminoacetyl]amino]-3-[(2-methyl-5,6-dioxo-1H-1,2,4-triazin-3-yl)sulfanylmethyl]-8-ox o-5-thia-1-azabicyclo[4.2.0]oct-2-ene-2-carboxylic acid], the “outcome of phase 3 clinical trial” value in the data set on ALS patients was “failed”.
